Structures can show the parent of a compound that is named as a salt.
System: Human fibrosarcoma cells (HT-1080 cells)
Assay: In vitro inhibitory action against ferroptosis (Erastin-induced cell death, Cell Counting Kit-8)
Assay type: cell-based
Settings: evaluation concentration 25 μmol/L, Erastin 3 μmol/L, 24 hours
Method: The inhibitory action against ferroptosis of the tetrahydroquinoline derivative (I) or a pharmaceutically acceptable salt thereof was evaluated with Human fibrosarcoma cells (HT-1080 cells), by using, as an index, the inhibitory action against the cell death induced by treatment with a ferroptosis inducer, Erastin.
HT-1080 cells (ATCC) were cultured in a mixture (hereinafter referred to as vehicle) composed of DMEM/F12 (Thermo Fisher Scientific, Inc.), a final concentration of 10% fetal bovine serum (Thermo Fisher Scientific, Inc.), and a final concentration of 1% penicillin-streptomycin solution (Nacalai Tesque, Inc.). Cells were seeded into 96-well plates (Corning Inc.) at 5×10^4 cells/well and cultured overnight.
A test compound was dissolved in DMSO, and the resulting solution was diluted in the vehicle to a final concentration of 1% DMSO and then used. […] Thirty minutes after the addition of the test compound, Erastin (Cayman Chemical Co.) diluted in the vehicle at a final concentration of 3 μmol/L was added to wells. The wells added with the test compound and Erastin were grouped as “test compound,” and the wells added with no test compound and no Erastin were grouped as “background,” and the wells added with no test compound but with Erastin were grouped as “control.” Twenty-four hours after the addition of Erastin, 5 μL of Cell Counting Kit-8 (Dojindo Laboratories) was added to each well and incubated for 4 hours, and the absorbance at 450 nm was then measured for each well (N=2). […] Ferroptosis inhibition rate (%)=[1−{(Average absorbance value at 450 nm measured when a test compound is added)−(Average absorbance value at 450 nm measured in the background)}/{(Average absorbance value at 450 nm measured in the control)−(Average absorbance value at 450 nm measured in the background)}]×100 Equation 1

Structure (SMILES)	Ferroptosis inhibition rate (%)
Nc1ccc2c(c1)CCC(c1ccccc1)N2 (centres unmarked) [Example 64, 2-phenyl-1,2,3,4-tetrahydroquinoline-6-amine dihydrochloride]	82.89
CC(C)(C)CC(=O)Nc1ccc2c(c1)CCC(c1ccccc1)N2 (centres unmarked) [Example 78, 3,3-dimethyl-N-(2-phenyl-1,2,3,4-tetrahydroquinolin-6-yl)butanamide]	88.56

Same assay, conditions: evaluation concentration 30 μmol/L, Erastin 3 μmol/L, 24 hours

Structure (SMILES)	Ferroptosis inhibition rate (%)
O=C1CCc2cc(C3CCc4ccccc4N3)ccc2N1 (centres unmarked) [Example 23, 1,2,3,3′,4,4′-hexahydro-[2,6′-biquinolin]-2′(1′H)-one]	68.45
CN1C(=O)CCc2cc(C3CCc4ccccc4N3)ccc21 (centres unmarked) [Example 24, 1′-methyl-1,2,3,3′,4,4′-hexahydro-[2,6′-biquinolin]-2′(1′H)-one]	59.67
O=C1NCc2cc(C3CCc4ccccc4N3)ccc21 (centres unmarked) [Example 25, 5-(1,2,3,4-tetrahydroquinolin-2-yl)isoindolin-1-one]	105.3
CCN(CC)C(=O)c1ccc(C2CCc3ccccc3N2)cc1 (centres unmarked) [Example 39, N,N-diethyl-4-(1,2,3,4-tetrahydroquinolin-2-yl)benzamide]	101.5
CCNC(=O)c1ccc(C2CCc3ccccc3N2)cc1 (centres unmarked) [Example 40, N-ethyl-4-(1,2,3,4-tetrahydroquinolin-2-yl)benzamide]	111.1
O=C(c1ccc(C2CCc3ccccc3N2)cc1)N1CCCCC1 (centres unmarked) [Example 41, piperidin-1-yl(4-(1,2,3,4-tetrahydroquinolin-2-yl)phen-yl)methanone]	102.2
O=C(c1ccc(C2CCc3ccccc3N2)cc1)N1CCOCC1 (centres unmarked) [Example 42, morpholino(4-(1,2,3,4-tetrahydroquinolin-2-yl)phenyl)methanone]	98.89
CN1CCN(C(=O)c2ccc(C3CCc4ccccc4N3)cc2)CC1 (centres unmarked) [Example 43, (4-methylpiperazin-1-yl)(4-(1,2,3,4-tetrahydroquinolin-2-yl)phenyl)methanone]	107.1
N#Cc1cccc(C2CCc3ccccc3N2)c1 (centres unmarked) [Example 45, 3-(1,2,3,4-tetrahydroquinolin-2-yl)benzonitrile]	109.1
NC(=O)c1cccc(C2CCc3ccccc3N2)c1 (centres unmarked) [Example 46, 3-(1,2,3,4-tetrahydroquinolin-2-yl)benzamide]	109.0
OCc1ccccc1C1CCc2ccccc2N1 (centres unmarked) [Example 47, (2-(1,2,3,4-tetrahydroquinolin-2-yl)phenyl)methanol]	85.21
OCc1cccc(C2CCc3ccccc3N2)c1 (centres unmarked) [Example 48, (3-(1,2,3,4-tetrahydroquinolin-2-yl)phenyl)methanol]	81.80
OCc1ccc(C2CCc3ccccc3N2)cc1 (centres unmarked) [Example 49, (4-(1,2,3,4-tetrahydroquinolin-2-yl)phenyl)methanol]	99.20
c1ccc2c(c1)CCC(c1cnsc1)N2 (centres unmarked) [Example 50, 4-(1,2,3,4-tetrahydroquinolin-2-yl)isothiazole]	103.2
CC(C)c1ccc2c(c1)CCC(c1ccccc1)N2 (centres unmarked) [Example 54, 6-isopropyl-2-phenyl-1,2,3,4-tetrahydroquinoline]	109.9
Oc1ccc2c(c1)CCC(c1ccccc1)N2 (centres unmarked) [Example 55, 2-phenyl-1,2,3,4-tetrahydroquinolin-6-ol]	93.72
CC(C)(O)c1ccc2c(c1)CCC(c1ccccc1)N2 (centres unmarked) [Example 57, 2-(2-phenyl-1,2,3,4-tetrahydroquinolin-6-yl)propan-2-ol]	89.18
c1ccc(C2CCc3cc(CN4CCOCC4)ccc3N2)cc1 (centres unmarked) [Example 59, 4-((2-phenyl-1,2,3,4-tetrahydroquinolin-6-yl)methyl)morph-oline]	76.73
c1ccc2c(c1)CCC(c1cnco1)N2 (centres unmarked) [Example 65, 5-(1,2,3,4-tetrahydroquinolin-2-yl)oxazole]	89.25
Brc1ccc2c(c1)CCC(c1ccccc1)N2 (centres unmarked) [Example 70, 6-bromo-2-phenyl-1,2,3,4-tetrahydroquinoline]	97.10
OC1(c2ccc3c(c2)CCC(c2ccccc2)N3)COC1 (centres unmarked) [Example 71, 3-(2-phenyl-1,2,3,4-tetrahydroquinolin-6-yl)oxetan-3-ol]	108.9
c1ccc(C2CCc3cc(N4CCCCC4)ccc3N2)cc1 (centres unmarked) [Example 72, 2-phenyl-6-(piperidin-1-yl)-1,2,3,4-tetrahydroquinoline]	110.6
CC(C)(C)C(=O)Nc1ccc2c(c1)CCC(c1ccccc1)N2 (centres unmarked) [Example 74, N-(2-phenyl-1,2,3,4-tetrahydroquinolin-6-yl)pivalamide]	85.08
CS(=O)(=O)Nc1ccc2c(c1)CCC(c1ccccc1)N2 (centres unmarked) [Example 75, N-(2-phenyl-1,2,3,4-tetrahydroquinolin-6-yl)methanesulfonamide]	110.6
NC(=O)Nc1ccc2c(c1)CCC(c1ccccc1)N2 (centres unmarked) [Example 77, 1-(2-phenyl-1,2,3,4-tetrahydroquinolin-6-yl)urea]	101.6
Clc1cccc2c1NC(c1ccccc1)CC2 (centres unmarked) [Example 79, 8-chloro-2-phenyl-1,2,3,4-tetrahydroquinoline]	104.4
Fc1cccc2c1NC(c1ccccc1)CC2 (centres unmarked) [Example 80, 8-fluoro-2-phenyl-1,2,3,4-tetrahydroquinoline]	103.9
CC1(c2ccccc2)CCc2ccccc2N1 (centres unmarked) [Example 91, 2-methyl-2-phenyl-1,2,3,4-tetrahydroquinoline]	105.2

Same assay, conditions: evaluation concentration 50 μmol/L, Erastin 3 μmol/L, 24 hours

Structure (SMILES)	Ferroptosis inhibition rate (%)
Fc1cccc(C2CCc3ccccc3N2)c1 (centres unmarked) [Example 27, 2-(3-fluorophenyl)-1,2,3,4-tetrahydroquinoline]	113.1
Fc1ccccc1C1CCc2ccccc2N1 (centres unmarked) [Example 28, 2-(2-fluorophenyl)-1,2,3,4-tetrahydroquinoline]	109.4
FC(F)(F)c1cccc(C2CCc3ccccc3N2)c1 (centres unmarked) [Example 30, 2-(3-(trifluoromethyl)phenyl)-1,2,3,4-tetrahydroquinoline]	83.09
CNC(=O)c1cccc(C2CCc3ccccc3N2)c1 (centres unmarked) [Example 44, N-methyl-3-(1,2,3,4-tetrahydroquinolin-2-yl)benzamide]	114.3
OCc1cccc2c1CCC(c1ccccc1)N2 (centres unmarked) [Example 51, (2-phenyl-1,2,3,4-tetrahydroquinolin-5-yl)methanol]	84.55
OCc1ccc2c(c1)NC(c1ccccc1)CC2 (centres unmarked) [Example 52, (2-phenyl-1,2,3,4-tetrahydroquinolin-7-yl)methanol]	74.96
c1ccc(C2CCc3ccccc3N2)nc1 (centres unmarked) [Example 53, 2-(pyridin-2-yl)-1,2,3,4-tetrahydroquinoline]	111.3
COC(=O)c1ccc2c(c1)CCC(c1ccccc1)N2 (centres unmarked) [Example 56, methyl 2-phenyl-1,2,3,4-tetrahydroquinoline-6-carboxylate]	100.1
CC(C)(C)OC(=O)Nc1ccc2c(c1)CCC(c1ccccc1)N2 (centres unmarked) [Example 63, tert-butyl (2-phenyl-1,2,3,4-tetrahydroquinolin-6-yl)carbamate]	68.73
CC(=O)Nc1ccc2c(c1)CCC(c1ccccc1)N2 (centres unmarked) [Example 73, N-(2-phenyl-1,2,3,4-tetrahydroquinolin-6-yl)acetamide]	88.18
CC(C)(C)NC(=O)Nc1ccc2c(c1)CCC(c1ccccc1)N2 (centres unmarked) [Example 76, 1-(tert-butyl)-3-(2-phenyl-1,2,3,4-tetrahydroquinolin-6-yl)urea]	85.43
FC(F)(F)c1ccc2c(c1)CCC(c1ccccc1)N2 (centres unmarked) [Example 84, 2-phenyl-6-(trifluoromethyl)-1,2,3,4-tetrahydroquinoline]	107.1
Fc1cc(F)c2c(c1)CCC(c1ccccc1)N2 (centres unmarked) [Example 86, 6,8-difluoro-2-phenyl-1,2,3,4-tetrahydroquinoline]	98.80
CC(C)(C)NC(=O)Nc1ccc2c(c1)CCC(c1ccc(C(N)=O)cc1)N2 (centres unmarked) [Example 87, 4-(6-(3-(tert-butyl)ureido)-1,2,3,4-tetrahydroquinolin-2-yl)benzamide]	95.20

Source: US12570639B2, “Tetrahydroquinoline derivative and medicinal use thereof” (Toray Industries, Inc., priority 2020, dated 2026)
